Where “and” joins values, the source holds several entries; their conditions need not be identical. Equal values may be shown once. Entries after “also recorded” stand apart in the source; their conditions may differ. Read-outs that look alike come from different tables or passages of the source. Marks after values point to notes of the source that are not given here.
What was measured:
[1] = CRA trough plasma concentrations (LC-MS/MS); format: in vivo, human
Protocol: Cis retinoic acid PK studies were performed during the first 2 cycles of therapy. Serial sampling of venous blood was obtained at the following times: pre-treatment on Cycle 1, days 1, 2, 3, 4, 8, and 15 and pre-treatment on Cycle 2, days 1, 15, 16, 17, and 22. Blood samples were collected in heparinised tubes and were processed by centrifugation within 30 min at 1000 g at 4 °C for 10 min. Plasma was stored at −20 °C until analysis using a validated LC-MS/MS analytical method. Briefly, 1 ml plasma was extracted with 5 ml of acetonitrile/n-Butyl chloride (1 : 4, v/v) containing paclitaxel. Cis retinoic acid was separated on a Waters (Milford, MA, USA) X-Terra MS C18 (50 × 2.1 mm, 3.5 μm) column with 0.1% formic acid in acetonitrile/10 mM ammonium acetate (80 : 20, v/v) using isocratic flow of 0.2 ml min^−1 for 5 min. Cis retinoic acid was quantitated over the range of 5–2000 ng ml^−1. Quality control samples were assayed with each analytic run and were within 15% of the nominal concentration. […] Cmin at steady state (Css,min) was calculated for each patient by taking the average of the Cmin during each cycle.
Descriptive statistics were used to summarise patient characteristics, efficacy, and safety data. […] Differences between CRA Css,min during each cycle were evaluated statistically by use of a non-parametric, 2-sided Wilcoxon signed rank test for paired observations. […]

[2] = design: method as in Thurn et al, 2011; settings: CRA after administration of a similar dose; ref Thurn et al, 2011; cited from earlier work
[3] = system: acetylated H3 in tumour tissue; assay: Western blot of tumour FNA: acetylated H3; format: in vivo, human; settings: FNA of liver lesion, patient with metastatic prostate cancer; entinostat with CRA
Protocol: (§1) A pre-treatment sample was taken on day 15. During Cycle 2, and subsequent cycles, samples were collected pre-treatment on days 1 and 15. […] Peripheral blood mononuclear cells were collected from patients according to the study calendar schedule. For isolation of PBMCs, 10 ml of blood were collected in CPT tubes (Vacutainer CPT Cell Preparation Tube with NC: 0.45 ml; Ficoll: 1.0 ml; Becton Dickinson, Franklin Lakes, NJ, USA) and plasma was separated by centrifugation. Differential centrifugation of plasma was performed to isolate PBMCs, which were kept frozen at −80 °C until the end of the study schedule for each patient. Fine needle aspiration (FNA) was planned on Cycle 1, day 22 in patients with accessible tumours to assess changes in acetylation and signalling pathway expression. For western blotting, PBMCs and tumour tissue were lysed in M-PER mammalian protein extraction reagent (Pierce, Rockford, IL, USA) with protease inhibitor cocktail (Roche Diagnostics, Indianapolis, IN, USA), followed by brief sonication. Proteins (20 μg per lane) from cell lysates were applied to 4–15% Tris-HCl gels (Bio-Rad, Hercules, CA, USA) and blotted with primary antibodies that were purchased from Upstate (Lake Placid, NY, USA) for anti-acetyl histone H3 and from Sigma (St Louis, MO, USA) for β-actin clone A1978, ERK, and phosphorylated ERK.

[4] = Entinostat plasma pharmacokinetics (LC-MS/MS, non-compartmental analysis); format: in vivo, human; settings: for Cls/F (apparent oral clearance) / half-life / Tmax / Cmax / AUC: plasma; for half-life / Tmax / Cmax / AUC: human; for AUC: read-out: AUC0−∝
Protocol: Pharmacokinetic studies were performed during the first 2 cycles of therapy. […] Blood samples were collected in heparinised tubes and were processed by centrifugation at 1000 g for 10 min. Plasma was stored at −20 °C until analysis. […] Quality control samples were assayed with each analytic run and were within 15% of the nominal concentration. Individual PK parameters were estimated by standard non-compartmental analysis, which was performed using WinNonlin, Version 5.3 (Pharsight Corporation, Mountain View, CA, USA; [Gibaldi, 1982]). Descriptive statistics were used to summarise patient characteristics, efficacy, and safety data. Pharmacokinetic parameters were summarised by descriptive statistics using dose-normalised parameters for dose-dependent parameters and actual values for dose-independent parameters. Kruskal–Wallis analysis of variance by ranks or the Wilcoxon rank-sum were used to compare the differences in entinostat PK parameters and CRA Css,min as a function of dose level. […] Statistical calculations were performed with the software package JMP, Version 4.0.4 (SAS Institute, Cary, NC, USA). The a priori level of significance was set at P<0.05.

[5] = system: phosphorylated ERK in tumour tissue; assay: Western blot of tumour FNA: phosphorylated ERK; format: in vivo, human; settings: FNA of liver lesion, patient with metastatic prostate cancer; entinostat with CRA
Protocol: as §1

[6] = design: method as in Gore et al, 2008; settings: entinostat single agent, 7- or 14-day schedule; ref Gore et al, 2008; cited from earlier work
[7] = system: histone H3 acetylation in PBMCs; assay: Western blot of histone H3 acetylation in PBMCs; format: in vivo, human; settings: pre-treatment vs post-treatment time points, entinostat with CRA
Protocol: as §1

[8] = system: human prostate cancer cell line (LAPC4); assay: PSA secretion and PSA gene expression in LAPC4 cells in vitro; format: cell-based
Source text: The sudden rise of tumour marker CA 19-9 in a patient with unresectable pancreatic cancer was worrisome for a rapid clinical progression. However, the CT scan documented stable disease for 6 months. […] An increase in the PSA slope occurred while on treatment, with a rapid deflection following treatment discontinuation. […] This observation poses some challenges as in the clinical development of ‘differentiation’ therapies increasing tumour marker levels may not be a significant sign for disease progression, but rather a potential signal of biological activity. […] Accordingly, the use of tumour markers for disease response assessment is evolving and needs to be further validated in prospective studies. Recently, the Prostate Cancer Clinical Trials Working Group recommended that in most clinical trials early changes in PSA should not be acted on without other evidence of disease progression, and treatment should be continued for at least 12 weeks to ensure adequate drug exposure ([Scher et al, 2008]).

[9] = entinostat oral once weekly (fasting) with 1 mg kg^−1 CRA
Protocol: A starting dose of 4 mg m^−2 and a fixed CRA dose at 1 mg kg^−1 per dose level were planned. If a patient experienced toxicities the next lower level was 2 mg m^−2. […] Originally six dose levels were included ([…]). Each cohort consisted of three patients according to the standard 3+3 design, where if one patient experiences a DLT, three additional patients are enroled.
Dose-limiting toxicity was defined as first cycle adverse events ⩾grade 3 non-haematological or ⩾grade 4 haematological toxicities. The MTD was defined as one dose level below the dose at which ⩾ two of six patients experience DLT. […] Tumour response assessment was performed every two cycles (2 months) by both clinical assessment and imaging studies.

In the case of `CC1=C(/C=C/C(C)=C/C=C/C(C)=C\C(=O)O)C(C)(C)CCC1` [CRA, 13-cis retinoic acid], the “average Css,min” value ([1]; Cycle 1, CRA 1 mg kg^−1 per day oral with entinostat) is listed as 194.9 ± 103.5 ng/mL, the “average Css,min” value ([1]; Cycle 2, CRA 1 mg kg^−1 per day oral with entinostat) is listed as 131.8 ± 79.3 ng/mL and the steady-state trough concentrations [2] is listed as 160 ± 19 ng/mL.
In the case of `Nc1ccccc1NC(=O)c1ccc(CNC(=O)OCc2cccnc2)cc1` [entinostat], the “intra-tumoural acetylated H3” value [3] is reported as “increased; also recorded: induction”, the “patients with measurable entinostat concentrations” value ([4]; 1 week post-treatment) is reported as 14 of 17 and the “Cls/F (apparent oral clearance)” value ([4]; all dose levels (Total) with CRA, Cycle 1, day 1, mean±s.d., n=13) is reported as 14.9±22.0 ^c l h^−1 m^−2. The “Cls/F (apparent oral clearance)” value ([4]; all dose levels (Total) with CRA, Cycle 1, day 1, mean±s.d., n=13, listed as Entinostat) was 14.9±22.0 l h^−1 m^−2, the variability in clearance ([4]; entinostat with CRA, patients with solid tumours) was 147% and the half-life ([4]; oral, all dose levels (Total) with CRA, Cycle 1, day 1, mean±s.d., n=13, read-out: T1/2 (terminal half-life) (converted)) was 114 ± 78.2 h. It also gave a Tmax ([4]; oral, all dose levels (Total, 4 and 5 mg m^−2) with CRA, Cycle 1, day 1, median (range), 18 patients) of 0.42 h, a Cmax ([4]; po, 4 mg m^−2) of 114 ± 84 ng/mL and a Tmax ([4]; po, 4 mg m^−2) of 0.5 h. For the same compound, the AUC ([4]; po, 4 mg m^−2) was 587 ± 401 ng·h/mL, the half-life ([4]; po, 4 mg m^−2, read-out: T1/2 (converted)) was 130 ± 88.5 h and the Cmax ([4]; po, 5 mg m^−2) was 109 ± 66 ng/mL. The Tmax ([4]; po, 5 mg m^−2) was 0.25 h, the AUC ([4]; po, 5 mg m^−2) was 778 ± 648 ng·h/mL and the half-life ([4]; po, 5 mg m^−2, read-out: T1/2 (converted)) was 77.3 ± 31.9 h. For the same compound, the “phosphorylated ERK protein levels in tumour” value [5] was “decreased; also recorded: inhibition”, the Tmax [6] was ≤ 1 h and the variability in clearance [6] was 24–68%. The “histone H3 acetylation in PBMCs” value [7] was “transient increased acetylation”, the PSA gene expression [8] was “no change” and the “increase in PSA secretion into the culture media” value ([8]; achievable plasma concentrations of entinostat, data not shown) was 2.5 fold. For the same compound, the “maximum tolerated dose (MTD)” value [9] was < 5 mg m^−2 and 4 mg m^−2.
